Source: publication PMC4503722, “Novel Phenotypic Outcomes Identified for a Public Collection of Approved Drugs from a Publicly Accessible Panel of Assays” (PLoS ONE, 2015)
Read-outs that look alike come from different tables or passages of the source.

Key:
SNU-C1 = assay: cells; assay type: cell-based
RKO = assay: cells; assay type: cell-based
SW480 = assay: cells; assay type: cell-based
[1] = system: endothelial tube formation in co-cultures of ECFCs and ADSCs treated with VEGF; assay: cells; assay type: cell-based, human
HT-29 = assay: cells; assay type: cell-based
Colo320 = assay: cells; assay type: cell-based
DLD-1 = assay: cells; assay type: cell-based
[2] = system: ECFC/ADSC co-culture cell nuclei number
[3] = system: HCT116 cells treated with a GSK3β inhibitor; assay: cells; assay type: cell-based
HCT116 = assay: cells; assay type: cell-based
[4] = assay number 30, concentration response
[5] = assay number 29, concentration response
[6] = assay number 24, concentration response
[7] = assay number 28, concentration response
[8] = assay number 27, concentration response
[9] = assay number 23, concentration response
[10] = assay number 26, GSK3b inhibitor pretreated, concentration response
[11] = assay number 25, basal, concentration response
[12] = assay number 26, GSK3b inhibitor pretreated

SMILES: CC=CC1C(C(=O)OCc2c(F)c(F)c(COC)c(F)c2F)C1(C)C (stereo not shown) [NCGC00319021-01]
- Basal_Viability ATP SNU-C1 IC50/EC50 (SNU-C1; [4]): > 20 µM
- Basal_Viability ATP RKO IC50/EC50 (RKO; [5]): > 20 µM
- Basal_Viability ATP SW480 IC50/EC50 (SW480; [6]): > 20 µM
- VEGF_ADSC\ECFC Angio CD31 TubeArea IC50/EC50 [1]: > 10 µM
- Basal_Viability ATP HT-29 IC50/EC50 (HT-29; [7]): > 20 µM
- Basal_Viability ATP Colo 320 IC50/EC50 (Colo320; [8]): > 20 µM
- Basal_Viability ATP DLD-1 IC50/EC50 (DLD-1; [9]): > 20 µM
- VEGF_ADSC\ECFC Angio Hoechst NucArea IC50/EC50 [2]: > 10 µM
- GSK3b inh pretreated_Viability ATP HCT116 IC50/EC50 [3, 10]: > 20 µM
- Basal_Viability ATP HCT116 IC50/EC50 (HCT116; [11]): > 20 µM

SMILES: Cc1c(O)cc2c(c1C)O[C@](C)(CCC[C@H](C)CCC[C@H](C)CCCC(C)C)CC2 [NCGC00185764-03]
- Basal_Viability ATP SNU-C1 IC50/EC50 (SNU-C1; assay number 30, basal): > 20 µM
- Basal_Viability ATP RKO IC50/EC50 (RKO; assay number 29, basal): > 20 µM
- Basal_Viability ATP SW480 IC50/EC50 (SW480; assay number 24, basal): > 20 µM
- VEGF_ADSC\ECFC Angio CD31 TubeArea IC50/EC50 [1]: > 10 µM
- Basal_Viability ATP HT-29 IC50/EC50 (HT-29; assay number 28, basal): > 20 µM
- Basal_Viability ATP Colo 320 IC50/EC50 (Colo320; assay number 27, basal): > 20 µM
- Basal_Viability ATP DLD-1 IC50/EC50 (DLD-1; assay number 23, basal): > 20 µM
- VEGF_ADSC\ECFC Angio Hoechst NucArea IC50/EC50 [2]: > 10 µM
- GSK3b inh pretreated_Viability ATP HCT116 IC50/EC50 [3, 12]: > 20 µM
- Basal_Viability ATP HCT116 IC50/EC50 (HCT116; assay number 25, basal): > 20 µM

SMILES: CC/C=C\C/C=C\C/C=C\CCCCCCCC(=O)O [NCGC00091058-11]
- IC50/EC50, Basal_Viability ATP SNU-C1 (assay number 30) (SNU-C1; basal): > 20 µM
- IC50/EC50, Basal_Viability ATP RKO (assay number 29) (RKO; basal): > 20 µM
- IC50/EC50, Basal_Viability ATP SW480 (assay number 24) (SW480; basal): > 20 µM
- IC50/EC50, VEGF_ADSC\ECFC Angio CD31 TubeArea (assay number 2) [1]: > 10 µM
- IC50/EC50, Basal_Viability ATP HT-29 (assay number 28) (HT-29; basal): > 20 µM
- IC50/EC50, Basal_Viability ATP Colo 320 (assay number 27) (Colo320; basal): > 20 µM
- IC50/EC50, Basal_Viability ATP DLD-1 (assay number 23) (DLD-1; basal): > 20 µM
- IC50/EC50, VEGF_ADSC\ECFC Angio Hoechst NucArea (assay number 3) [2]: > 10 µM
- IC50/EC50, GSK3b inh pretreated_Viability ATP HCT116 (assay number 26) ([3]; GSK3b inh pretreated): > 20 µM
- IC50/EC50, Basal_Viability ATP HCT116 (assay number 25) (HCT116; basal): > 20 µM

SMILES: CCCCCCCCCCCCCCCCCCOP(=O)([O-])OC1CC[N+](C)(C)CC1 [NCGC00187909-02]
- Basal_Viability ATP SNU-C1 IC50/EC50 (SNU-C1; [4]): > 20 µM
- Basal_Viability ATP RKO IC50/EC50 (RKO; [5]): 2.0992 µM
- Basal_Viability ATP SW480 IC50/EC50 (SW480; [6]): 0.8519 µM
- VEGF_ADSC\ECFC Angio CD31 TubeArea IC50/EC50 [1]: > 10 µM
- Basal_Viability ATP HT-29 IC50/EC50 (HT-29; [7]): 6.9016 µM
- Basal_Viability ATP Colo 320 IC50/EC50 (Colo320; [8]): 2.358 µM
- Basal_Viability ATP DLD-1 IC50/EC50 (DLD-1; [9]): > 20 µM
- VEGF_ADSC\ECFC Angio Hoechst NucArea IC50/EC50 [2]: > 10 µM
- GSK3b inh pretreated_Viability ATP HCT116 IC50/EC50 [3, 10]: 5.7889 µM
- Basal_Viability ATP HCT116 IC50/EC50 (HCT116; [11]): 3.1704 µM

SMILES: C=CCCCCCCCCC(=O)OC [NCGC00166231-02]
- Basal_Viability ATP SNU-C1 IC50/EC50 (SNU-C1; [4]): > 20 µM
- Basal_Viability ATP RKO IC50/EC50 (RKO; [5]): > 20 µM
- Basal_Viability ATP SW480 IC50/EC50 (SW480; [6]): > 20 µM
- VEGF_ADSC\ECFC Angio CD31 TubeArea IC50/EC50 [1]: > 10 µM
- Basal_Viability ATP HT-29 IC50/EC50 (HT-29; [7]): > 20 µM
- Basal_Viability ATP Colo 320 IC50/EC50 (Colo320; [8]): > 20 µM
- Basal_Viability ATP DLD-1 IC50/EC50 (DLD-1; [9]): > 20 µM
- VEGF_ADSC\ECFC Angio Hoechst NucArea IC50/EC50 [2]: > 10 µM
- GSK3b inh pretreated_Viability ATP HCT116 IC50/EC50 [3, 10]: > 20 µM
- Basal_Viability ATP HCT116 IC50/EC50 (HCT116; [11]): > 20 µM

SMILES: CC(C)=CCC/C(C)=C/CC/C(C)=C/CC/C=C(\C)CC/C=C(\C)CCC=C(C)C [NCGC00181323-02]
- IC50 (SNU-C1; assay number 30, basal, read-out: Basal_Viability ATP SNU-C1 summarized IC50): > 20 µM
- IC50 (RKO; assay number 29, basal, read-out: Basal_Viability ATP RKO summarized IC50): > 20 µM
- IC50 (SW480; assay number 24, basal, read-out: Basal_Viability ATP SW480 summarized IC50): > 20 µM
- IC50 ([1]; read-out: VEGF_ADSC\ECFC Angio CD31 TubeArea summarized IC50): > 10 µM
- IC50 (HT-29; assay number 28, basal, read-out: Basal_Viability ATP HT-29 summarized IC50): > 20 µM
- IC50 (Colo320; assay number 27, basal, read-out: Basal_Viability ATP Colo 320 summarized IC50): > 20 µM
- IC50 (DLD-1; assay number 23, basal, read-out: Basal_Viability ATP DLD-1 summarized IC50): > 20 µM
- IC50 ([2]; read-out: VEGF_ADSC\ECFC Angio Hoechst NucArea summarized IC50): > 10 µM
- IC50 ([3]; assay number 26, GSK3b inhibitor pretreated, read-out: GSK3b inh pretreated_Viability ATP HCT116 summarized IC50): > 20 µM
- IC50 (HCT116; assay number 25, basal, read-out: Basal_Viability ATP HCT116 summarized IC50): > 20 µM

SMILES: Cc1cc2nc3ccc(=[N+](C)C)cc-3sc2cc1N.[Cl-] [NCGC00181775-02]
- Basal_Viability ATP SNU-C1 IC50/EC50 (SNU-C1): 5.5567 µM
- Basal_Viability ATP RKO IC50/EC50 (RKO): 0.9955 µM
- Basal_Viability ATP SW480 IC50/EC50 (SW480): 1.397 µM
- VEGF_ADSC\ECFC Angio CD31 TubeArea IC50/EC50 [1]: 2.45 µM
- Basal_Viability ATP HT-29 IC50/EC50 (HT-29): 5.063 µM
- Basal_Viability ATP Colo 320 IC50/EC50 (Colo320): 0.9874 µM
- Basal_Viability ATP DLD-1 IC50/EC50 (DLD-1): 9.38 µM
- VEGF_ADSC\ECFC Angio Hoechst NucArea IC50/EC50 [2]: 8.146 µM
- GSK3b inh pretreated_Viability ATP HCT116 IC50/EC50 [3]: 1.693 µM
- Basal_Viability ATP HCT116 IC50/EC50 (HCT116): 2.782 µM

SMILES: O=C(NC1CCN(CCc2c[nH]c3ccccc23)CC1)c1ccccc1 [NCGC00165810-02]
- Basal_Viability ATP SNU-C1 IC50/EC50 (SNU-C1; assay number 30, basal): > 20 µM
- Basal_Viability ATP RKO IC50/EC50 (RKO; assay number 29, basal): > 20 µM
- Basal_Viability ATP SW480 IC50/EC50 (SW480; assay number 24, basal): > 20 µM
- VEGF_ADSC\ECFC Angio CD31 TubeArea IC50/EC50 [1]: > 10 µM
- Basal_Viability ATP HT-29 IC50/EC50 (HT-29; assay number 28, basal): > 20 µM
- Basal_Viability ATP Colo 320 IC50/EC50 (Colo320; assay number 27, basal): > 20 µM
- Basal_Viability ATP DLD-1 IC50/EC50 (DLD-1; assay number 23, basal): > 20 µM
- VEGF_ADSC\ECFC Angio Hoechst NucArea IC50/EC50 [2]: > 10 µM
- GSK3b inh pretreated_Viability ATP HCT116 IC50/EC50 [3, 12]: > 20 µM
